Consider eight molecules from patent publication US20070117836A1, “NAPTHALIMIDE DERIVATIVES, METHODS FOR THEIR PRODUCTION AND PHARMACEUTICAL COMPOSITIONS THEREFROM” (priority 2004, published 2007).

Where two headings read alike, the source gives them in different places.

Series [1] has as its system Six human cancer cell lines (Hs683, U-373MG, HCT-15, LoVo, A549, MCF-7). The series can be described thus: MTT test of overall cell growth. Format: cell-based. The conditions noted are these: range of molar concentrations giving 50% inhibition of overall tumor cells growth, MTT, 72 hours incubation, six human cancer cell lines, read-out: IC50. As for the experimental part:
In order to characterize the in vitro activity of the compounds of the invention, MTT tests were performed to indirectly and rapidly measure, i.e. within 5 days, the effect of such a compound on the overall cell growth. The test measures the number of metabolically active living cells that are able to transform the yellow product 3-(4,5-dimethylthiazol-2-yl)-2,5-diphenyl tetrazolium bromide (herein referred as MTT) into the blue product formazan dye by mitochondrial reduction. The amount of formazan obtained at the end of the experiment was measured by means of a spectrophotometer and is directly proportional to the number of living cells. Determination of the optical density enables a quantitative measurement of the effect of the investigated compounds as compared to the control condition (untreated cells) and/or to other reference compounds (in casu mitonafide and amonafide).
Six human cancer cell lines described in table 1 were used in the MTT tests. These cell lines cover four histological cancer types, being glioma, colon, lung and breast cancers. Cells were allowed to grow in 96-well micro-wells with a flat bottom with an amount of 100 μl of cell suspension per well with 1,000 to 4,000 cells/well depending on the cell type used. Each cell line was seeded in an MEM 5% serum culture medium.
The detailed experimental procedure was as follows: after a 24-hour period of incubation at 37° C., the culture medium was replaced by 100 μl of fresh medium in which the compound to be tested was dissolved at the following molar concentrations: 10^−9 M, 5.10^−9 M, 10^−8 M, 5.10^−8 M, 10^−7 M, 5.10^−7 M, 10^−6 M, 5.10^−6 M and 10^−5 M. Each experiment was repeated 6 times.
After 72 hours of incubation at 37° C. with (experimental conditions) or without (control condition) the compound to be tested, the medium was replaced by 100 μl MTT dissolved in RPMI at a concentration of 1 mg/ml. The micro-wells were subsequently incubated during 3 hours at 37° C. and centrifuged at 400 g during 10 minutes. MTT was removed and formazan crystals formed were dissolved in 100 μl DMSO. The micro-wells were shaken for 5 minutes and read on a spectrophotometer at wavelengths of 570 nm (maximum formazan absorbance) and 630 nm (background noise).
For each experimental condition, the mean optical density was calculated, as well as the percentage of remaining living cells in comparison with the control.
Background: Tetrazolium dyes change colour on reduction, which living cells bring about.

The test system of series [2] is L1210 (Mouse Leukemia). As to the kind of experiment: L1210 mouse leukemia model, survival. The class given is in vivo, mice. Particulars: median day of death treated/control. As for the experimental part:
L1210 is a syngeneic model (Mouse Leukemia) which may be used to define an optimal treatment regimen (doses and schedule) for subsequent testing of drugs in more expensive and time-consuming orthotopic human xenograft models. The model was performed with 5 mice per group, said mice being grafted at day 0 and the tested compounds being injected intraperitoneally (at the dose indicated in table 4) at days 1, 2, 3, 4, 7, 8, 9 and 10 respectively. The data shown in table 4 are T/C values which were calculated by dividing the median day of death in a treated group T by the median day of death in the control group C. T/C values of 130% or more (i.e. a prolongation of mice survival of 30% or more) indicate a significant prolongation of survival.
The experimental procedure of example 25 was repeated with compounds of examples 17, 19, 33 and 35, and the data obtained from this experiment are reported in table 7.

Series [3] is described as follows: in vivo. The conditions noted are these: mouse.
Protocol: (§1) The maximum tolerated dose (herein after MTD) is defined as the maximum amount of a given drug which can be administered acutely (i.e. in one intraperitoneal, intravenous, subcutaneous or oral single dose) to healthy animals, i.e. animals not grafted with tumors. The survival times and weights of the animals are recorded up to 14 days post injection. Five different doses of each drug are used for the determination of the MTD index. […] Each experimental group comprised 3 mice for the determination of the MTD index (expressed in mg/kg).
Series [4] concerns leukemia models in mice. The conditions noted are these: background statement; cited from earlier work.
Series [5] has as its system human tumour xenografts in mice with colon, lung and mammary cancers. The conditions noted are these: background statement; cited from earlier work.
The test system of series [6] is primary human solid tumours. Particulars: Ajani et al. Invest New Drugs (1988) 6:79-83; cited from earlier work.
The subject of series [7] is patients. Particulars: patients receiving five daily doses; leading to some deaths; cited from earlier work.
Series [8] deals with healthy animals. Particulars: single dose to healthy mice, 3 mice per group, survival and weights recorded up to 14 days post injection.
Protocol: as §1
The mark [9] stands for this setting: Mus musculus, L1210, ip, read-out: T/C (%), dose 10 mg/kg intraperitoneally at days 1, 2, 3, 4, 7, 8, 9 and 10.
Where [10] appears, read: Mus musculus, L1210, ip, read-out: T/C (%), dose 20 mg/kg intraperitoneally at days 1, 2, 3, 4, 7, 8, 9 and 10.
Setting [11] is: Mus musculus, L1210, ip, dose 10 mg/kg intraperitoneally at days 1, 2, 3, 4, 7, 8, 9 and 10, read-out: T/C (%).
[12] abbreviates: Mus musculus, L1210, ip, dose 20 mg/kg intraperitoneally at days 1, 2, 3, 4, 7, 8, 9 and 10, read-out: T/C (%).
The mark [13] stands for this setting: Mus musculus, L1210, ip, dose 40 mg/kg intraperitoneally at days 1, 2, 3, 4, 7, 8, 9 and 10, read-out: T/C (%).
Setting [14] is: Mus musculus, L1210, ip, dose 80 mg/kg intraperitoneally at days 1, 2, 3, 4, 7, 8, 9 and 10, read-out: T/C (%).
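Throughout, for MTD: highest single acute dose (intraperitoneal, intravenous, subcutaneous or oral) tolerated by tumor-free mice, assessed across five dose levels per drug.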

Consider `CN(C)CCN1C(=O)c2cccc3cc(NC(=O)NC(=O)C(Cl)(Cl)Cl)cc(c23)C1=O.Cl` [Example 33, 2,2,2-trichloro-N-[({2-[2-(dimethylamino)ethyl]-1,3-dioxo-2,3-dihydro-1H-benzo[de]isoquinolin-5-yl}amino)carbonyl]acetamide hydrochloride], for which, in series [1] (hydrochloride), the IC50 lay in the range of 5 to 10 µM. Also, the “T/C (%)” value was found to be 148% in series [2] (dose 10 mg/kg intraperitoneally at days 1, 2, 3, 4, 7, 8, 9 and 10); 138% in series [2] (dose 20 mg/kg intraperitoneally at days 1, 2, 3, 4, 7, 8, 9 and 10); 186% in series [2] (dose 40 mg/kg intraperitoneally at days 1, 2, 3, 4, 7, 8, 9 and 10); 200% in series [2] (dose 80 mg/kg intraperitoneally at days 1, 2, 3, 4, 7, 8, 9 and 10). This molecule also had an MTD at 14 days in series [3] of 120 mg/kg.
In the case of `CN(C)CCN1C(=O)c2cccc3cc(NC(=O)NC(=O)C(Cl)(Cl)Cl)cc(c23)C1=O` [Example 2, 2,2,2-trichloro-N-[({2-[2-(dimethylamino)ethyl]-1,3-dioxo-2,3-dihydro-1H-benzo[de]isoquinolin-5-yl}amino)carbonyl]acetamide], in series [1], the IC50 lay within 0.5 to 1 µM. For the same molecule, the response vs control in vivo at 10 mg/kg in series [2] (setting [9]) amounted to 128%. Also, the response vs control in vivo at 20 mg/kg in series [2] (setting [10]) is 156%. Further, the response vs control in vivo at 40 mg/kg in series [2] (Mus musculus, L1210, ip, read-out: T/C (%), dose 40 mg/kg intraperitoneally at days 1, 2, 3, 4, 7, 8, 9 and 10) worked out at 177%. Moreover, the response vs control in vivo at 80 mg/kg in series [2] (Mus musculus, L1210, ip, read-out: T/C (%), dose 80 mg/kg intraperitoneally at days 1, 2, 3, 4, 7, 8, 9 and 10) stood at 194%. Further, in series [3], the MTD at 14 days was more than 160 mg/kg.
On to `CN(C)CCN1C(=O)c2cccc3cc(N)cc(c23)C1=O` [amonafide, N-(2-dimethylaminoethyl)-3-amino-1,8-naphthalimide, reference compound], for which the IC50 in series [1] (Homo sapiens, 72 h) lay in the range of 1 to 5 µM. Besides, the response vs control in vivo at 2.5 mg/kg in series [2] (Mus musculus, L1210, ip, read-out: T/C (%), dose 2.5 mg/kg intraperitoneally at days 1, 2, 3, 4, 7, 8, 9 and 10) worked out at 120%. The response vs control in vivo at 5 mg/kg in series [2] (Mus musculus, L1210, ip, read-out: T/C (%), dose 5 mg/kg intraperitoneally at days 1, 2, 3, 4, 7, 8, 9 and 10) was found to be 140%. The response vs control in vivo at 10 mg/kg in series [2] (setting [9]) came to 120%. Also, the response vs control in vivo at 20 mg/kg in series [2] (setting [10]) was found to be 120%. Moreover, in series [4], the “activity in leukemia models in mice” value was “only moderate activity”. Besides, the “activity in human tumour xenografts in mice” value in series [5] is “no activity”. Moreover, the “activity in primary human solid tumours in vitro” value in series [6] is “poor activity”. The MTD at 14 days in series [3] was found to be 40 mg/kg. In addition, the myelotoxicity in patients entry in series [7] is “substantial myelotoxicity”.
In the case of `CN(C)CCN1C(=O)c2cccc3cc(NC(=O)Nc4ccc(OC(F)(F)F)cc4)cc(c23)C1=O` [Example 10], in series [1] (Homo sapiens, 72 h), the IC50 was in the range of 1 to 5 µM. Further, in series [2] (setting [11]), the response vs control in vivo at 10 mg/kg stood at 117%. In series [2] (setting [12]), the response vs control in vivo at 20 mg/kg was determined as 156%. For the same molecule, the response vs control in vivo at 40 mg/kg in series [2] (setting [13]) is 139%. The response vs control in vivo at 80 mg/kg in series [2] (setting [14]) turned out to be 194%. For the same molecule, the MTD at 14 days in series [3] (intraperitoneal) is more than 160 mg/kg.
With `CN(C)CCN1C(=O)c2cccc3cc(N=Cc4ccc5c(c4)OCO5)cc(c23)C1=O` [Example 17, 5-{[(1Z)-1,3-benzodioxol-5-ylmethylene]amino}-N-{2-[2-(dimethylamino)ethyl]-1H-benzo[de]isoquinoline-1,3(2H)-dione], the IC50 in series [1] (Homo sapiens, 72 h) was more than 10 µM. For the same molecule, the response vs control in vivo at 10 mg/kg in series [2] (setting [11]) came to 120%. The response vs control in vivo at 20 mg/kg in series [2] (setting [12]) was 233%. For the same molecule, in series [2] (setting [13]), the response vs control in vivo at 40 mg/kg stood at 207%. Moreover, the response vs control in vivo at 80 mg/kg in series [2] (setting [14]) was found to be 280%. Also, in series [3] (intraperitoneal), the MTD at 14 days worked out at 80 mg/kg.
`CN(C)CCN1C(=O)c2cccc3cc(/N=C\c4cc(O)ccc4O)cc(c23)C1=O.Cl` [Example 34] showed an MTD in series [8] of 40 mg/kg.
Regarding `CN(C)CCN1C(=O)c2cccc3cc(NC(=O)Nc4ccc(C#N)cc4)cc(c23)C1=O` [Example 7, N-[2-[2-(dimethylamino)ethyl]-1,3-dioxo-2,3-dihydro-1H-benzo[de]isoquinolin-5-yl]-N′-(4-cyanophenyl)urea], the 50% inhibitory concentration (IC50) in series [1] (Homo sapiens, 72 h) is 1 to 5 µM. Also, in series [2] (setting [11]), the response vs control in vivo at 10 mg/kg amounted to 140%. The response vs control in vivo at 20 mg/kg in series [2] (setting [12]) amounted to 147%. Besides, in series [2] (setting [13]), the response vs control in vivo at 40 mg/kg came to 147%. In addition, the response vs control in vivo at 80 mg/kg in series [2] (setting [14]) came to 213%. Further, the MTD at 14 days in series [3] (intraperitoneal) is more than 160 mg/kg.
In the case of `CN(C)CCN1C(=O)c2cccc3cc(/N=C\c4cc(O)ccc4O)cc(c23)C1=O` [Example 19, 2-[2-(dimethylamino)ethyl]-5-{[(1Z)-(2,5-dihydroxyphenyl)methylene]amino}-1H-benzo[de]isoquinoline-1,3(2H)-dione], the IC50 in series [1] (Homo sapiens, 72 h) stood at 10 µM. The response vs control in vivo at 10 mg/kg in series [2] (setting [11]) came to 150%. In series [2] (setting [12]), the response vs control in vivo at 20 mg/kg came out at 144%. In series [2] (setting [13]), the response vs control in vivo at 40 mg/kg was 231%. In series [2] (setting [14]), the response vs control in vivo at 80 mg/kg is 275%. Moreover, the MTD at 14 days in series [3] (intraperitoneal) turned out to be 80 mg/kg.

As a reminder, the IC50 is the concentration that gives 50% inhibition.
